Data as given in ChEMBL document CHEMBL1201862, “PubChem BioAssay data set” (2004).
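Test compounds were applied to cells in 96-well plates for 48 hours at 5 doses. At the GI50, growth is halved.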 Calls of active or inactive are those of the source. Rule as the data show it: active = GI50 up to about 1.1 µM and inactive = higher.

What was measured:
Test in all cases: NCI tumour cell line growth inhibition, 48 h
[1] = tested on: 786-0
[2] = tested on: A549
[3] = tested on: ACHN
[4] = tested on: DU-145
[5] = tested on: HOP-62
[6] = tested on: HOP-92
[7] = tested on: IGROV-1
[8] = tested on: K562
[9] = tested on: KM12
[10] = tested on: Malme-3M
[11] = tested on: NCI-H226
[12] = tested on: NCI-H23
[13] = tested on: OVCAR-5
[14] = tested on: PC-3
[15] = tested on: RXF 393
[16] = tested on: SK-MEL-28
[17] = tested on: SK-MEL-5
[18] = tested on: T47D
[19] = tested on: U-251
[20] = tested on: UACC-62

SMILES	GI50 [1]	GI50 [2]	GI50 [3]	GI50 [4]	GI50 [5]	GI50 [6]	GI50 [7]	GI50 [8]	GI50 [9]	GI50 [10]	GI50 [11]	GI50 [12]	GI50 [13]	GI50 [14]	GI50 [15]	GI50 [16]	GI50 [17]	GI50 [18]	GI50 [19]	GI50 [20]
CCOC(=O)C1C(=O)CC(C)(O)C(C(=O)OCC)C1c1ccc(OC)cc1 (stereo not given)	> 100 µM (inactive)	> 100 µM (inactive)	> 100 µM (inactive)	> 100 µM (inactive)	> 100 µM (inactive)	> 100 µM (inactive)	> 100 µM (inactive)	> 100 µM (inactive)	> 100 µM (inactive)	> 100 µM (inactive)	1.6 µM (inactive)	> 100 µM (inactive)	> 100 µM (inactive)	> 100 µM (inactive)	> 100 µM (inactive)	> 100 µM (inactive)	> 100 µM (inactive)	> 100 µM (inactive)	> 100 µM (inactive)	> 100 µM (inactive)
C[C@]12CC[C@@H]3c4cc(OCC(F)(F)F)c(O)cc4C(=O)C[C@H]3[C@@H]1CC[C@@H]2O	10.8 µM (inactive)	6.98 µM (inactive)	20.7 µM (inactive)	17.3 µM (inactive)	12.6 µM (inactive)	20.7 µM (inactive)	13.6 µM (inactive)	2.26 µM (inactive)	10.6 µM (inactive)	3.63 µM (inactive)	22.5 µM (inactive)	12 µM (inactive)	29.9 µM (inactive)	18.5 µM (inactive)	13 µM (inactive)	7.64 µM (inactive)	5.87 µM (inactive)	29.1 µM (inactive)	4.67 µM (inactive)	3.26 µM (inactive)
Cc1cc(NC2=CC(=O)C(=O)c3ccccc32)no1	15.1 µM (inactive)	5 µM (inactive)	11.7 µM (inactive)	16.4 µM (inactive)	17.6 µM (inactive)	16.4 µM (inactive)	8.28 µM (inactive)	3.89 µM (inactive)	12.6 µM (inactive)	2.49 µM (inactive)	17.6 µM (inactive)	1.54 µM (inactive)	5.5 µM (inactive)	10.3 µM (inactive)	15.1 µM (inactive)	13.5 µM (inactive)	2.26 µM (inactive)	11.9 µM (inactive)	3.92 µM (inactive)	3.23 µM (inactive)
COc1ccccc1Cn1c2c(c3c(C(=O)NCCN(C)C)c(O)ccc31)C(=O)c1ccccc1C2=O	0.409 µM (active)	1.82 µM (inactive)	1.64 µM (inactive)	1.81 µM (inactive)	1.92 µM (inactive)	1.17 µM (inactive)	1.68 µM (inactive)	0.977 µM (active)	1.59 µM (inactive)	1.63 µM (inactive)	10.4 µM (inactive)	1.83 µM (inactive)	1.94 µM (inactive)	2.09 µM (inactive)	1.07 µM (active)	1.71 µM (inactive)	1.74 µM (inactive)	2.16 µM (inactive)	1.91 µM (inactive)	1.83 µM (inactive)
CCC[C@H](N[S+]([O-])c1ccc(C)cc1)C(C(=O)OCC)=C(c1ccccc1)c1ccccc1 (stereo not given in full)	18.1 µM (inactive)	21.5 µM (inactive)	22.4 µM (inactive)	18.9 µM (inactive)	19 µM (inactive)	15.1 µM (inactive)	25.1 µM (inactive)	21.3 µM (inactive)	18.6 µM (inactive)	17.4 µM (inactive)	26.1 µM (inactive)	27.1 µM (inactive)	14.5 µM (inactive)	15 µM (inactive)	14.5 µM (inactive)	27.6 µM (inactive)	22.1 µM (inactive)	16.8 µM (inactive)	16.2 µM (inactive)	13.4 µM (inactive)
C=Cc1c(C)c(OC)cc2c1Oc1ccc(OC)c(C)c1CC2	> 100 µM (inactive)	> 100 µM (inactive)	> 100 µM (inactive)	> 100 µM (inactive)	> 100 µM (inactive)	> 100 µM (inactive)	> 100 µM (inactive)	> 100 µM (inactive)	> 100 µM (inactive)	> 100 µM (inactive)	39.9 µM (inactive)	> 100 µM (inactive)	> 100 µM (inactive)	52.6 µM (inactive)	> 100 µM (inactive)	> 100 µM (inactive)	53.6 µM (inactive)	> 100 µM (inactive)	> 100 µM (inactive)	> 100 µM (inactive)
Cn1ccc(C(=O)NCCN(CCNC(=O)c2ccn(C)c(=O)c2O)CCNC(=O)c2cccc(=O)n2O)c(O)c1=O	> 100 µM (inactive)	> 100 µM (inactive)	> 100 µM (inactive)	> 100 µM (inactive)	> 100 µM (inactive)	> 100 µM (inactive)	29.2 µM (inactive)	> 100 µM (inactive)	56.4 µM (inactive)	> 100 µM (inactive)	> 100 µM (inactive)	> 100 µM (inactive)	> 100 µM (inactive)	> 100 µM (inactive)	> 100 µM (inactive)	> 100 µM (inactive)	> 100 µM (inactive)	> 100 µM (inactive)	> 100 µM (inactive)	> 100 µM (inactive)
